Experimental data reported in paper PMC12806164, “Epithelial Heparan Sulfate Promotes Staphylococcus aureus Corneal Infection by Inhibiting Cathelicidins” (Proteoglycan research, 2025).
No end group written: not given here.

Tests used:
CRAMP [1] = test: Inhibition by glycosaminoglycans of S. aureus killing by CRAMP; format: cell-based, mouse; settings: 5 μg/mL glycosaminoglycan, 0.5 μM CRAMP, ~500 cfu USA300, phosphate buffer pH 7.4, 2 h at 37°C, n = 6
Experimental: (§1) Samples were plated onto TSA plates, and viable bacteria (cfu) were counted the following day. Data are shown as % bacterial killing, where killing activity in the presence of cathelicidin only represents 100% (n = 6, *p < 0.05, ****p < 0.0001, one-way ANOVA, multiple comparisons).
(§2) (A) Schematics of HS/HP structure. […] (F) BaclightGreen-labeled S. aureus (~400 cfu) was incubated with 0.5 μM CRAMP without or with 5 μg/mL HP, NDS-HP, 2ODS-HP, 6ODS-HP, H, NS-H, or NS2OS-H for 30 min at room temperature. Bacteria were washed, incubated with 10 μg/mL propidium iodide for 15 min at 4°C, and live (green) and dead (red) bacteria were visualized by fluorescence microscopy.
(§3) Late log phase S. aureus USA300 was washed with phosphate buffer (8.2 mM Na2HPO4, 1.8 mM KH2PO4, pH 7.4) and approximately 500 cfu were incubated with cathelicidins with or without excess GAGs for 2 h at 37°C as indicated. Viable bacteria were enumerated by plating onto TSA plates and counting colonies the following day. Results are shown as % bacterial killing, where 100% killing represents data derived from the group of bacteria incubated with cathelicidins only.
(§4) Figure S1. A) CRAMP expression was measured in uninfected Wt corneas or Wt corneas isolated at 4 h post-S. aureus USA300 infection. Briefly, eyes were enucleated, corneas were dissected, and isolated corneas were incubated with 10 mg/ml dispase II overnight at 4°C to peel off the corneal epithelium. Total RNA was purified from the corneal epithelium, and 1 ng of total RNA was analyzed by qRT-PCR for CRAMP or β-actin expression (n = 3, **p < 0.01). […] Bacterial killing was measured by plating serial dilutions onto TSA plates and counting colonies the following day. Results are shown as % bacterial survival (n = 4). Figure S2. […] Bacterial killing (%) was enumerated by plating serial dilutions onto TSA plates and counting colonies the following day (n = 5). B) Effects of pre-incubating S. aureus with glycosaminoglycans on bacterial killing by cathelicidins were examined by incubating 500 cfu of USA300 without or with 5 μg/ml HS, HP, DS, or CS for 30 min at 37°C. Bacteria were washed three times with buffer, incubated with 0.5 μM CRAMP for 2 h at 37°C, and % bacterial killing was determined by plating serial dilutions of samples (n = 4). Figure S3. S. aureus USA300 stained with BaclightGreen was incubated with 0.5 μM CRAMP in the absence or presence of 5 μg/ml HP, NDS-HP, 2ODS-HP, 6ODS-HP, H, NS-H, or NS2OS-H for 30 min at room temperature. Bacteria were washed and incubated with 10 μg/ml propidium iodide for 15 min on ice. Images were captured with a fluorescence microscope (Zeiss Axiovert 40 CFL). Quantification of % dead bacteria (out of total bacteria in field) is shown at the bottom. Figure S4. Alexa 647-conjugated CRAMP (0.5 μM) was incubated with fixed S. aureus USA300 without or with 5 μg/ml of the indicated glycosaminoglycans and chemically-desulfated HP compounds for 1 h at room temperature. S. aureus-associated CRAMP fluorescence was analyzed by flow cytometry. Representative FACS density plots are shown where heparan compounds containing 2-O-sulfated motifs decreased Alexa CRAMP binding by over 79% compared to the control (No GAG), except for NDS-HP where the reduction was approximately 65%. Fig. S5. Relative mRNA levels of A) Ndst1 and B) Sdc1 in the corneal epithelium of Hs2st^fl/fl, Krt12Cre, and Hs2st^fl/fl/Krt12Cre mice (n = 3).

LL-37 = test: Inhibition by glycosaminoglycans of S. aureus killing by LL-37; format: cell-based, human; settings: 5 μg/mL glycosaminoglycan, 1 μM LL-37, ~500 cfu USA300, phosphate buffer pH 7.4, 2 h at 37°C, n = 6
Experimental: as §1, §2, §3

CAP-18 = test: Inhibition by glycosaminoglycans of S. aureus killing by CAP-18; format: cell-based, rabbit; settings: 5 μg/mL glycosaminoglycan, 0.5 μM CAP-18, ~500 cfu USA300, phosphate buffer pH 7.4, 2 h at 37°C, n = 6
Experimental: as §1, §2, §3

SMAP-29 = test: Inhibition by glycosaminoglycans of S. aureus killing by SMAP-29; format: cell-based, sheep; settings: 5 μg/mL glycosaminoglycan, 0.5 μM SMAP-29, ~500 cfu USA300, phosphate buffer pH 7.4, 2 h at 37°C, n = 6
Experimental: as §1, §2, §3

CRAMP [2] = test: Alexa 647-CRAMP binding to Affi-Gel HP beads, competition by HP compounds (flow cytometry); design: species or system mouse; settings: 20 μg/mL competitor, 0.5 μM Alexa 647-conjugated CRAMP, 1 h at room temperature, n = 4
Experimental: (§5) FIGURE 4 | 2-O-sulfated heparan compounds directly bind to CRAMP with high affinity. Alexa 647-conjugated CRAMP (0.5 μM) was incubated with Affi-Gel HP beads without or with 20 μg/mL of HP, NDS-HP, 2ODS-HP, or 6ODS-HP for 1 h at room temperature. CRAMP fluorescence associated with Affi-Gel HP beads was analyzed by flow cytometry. Results are shown as (A) % CRAMP binding and (B) mean fluorescence intensity (MFI) of CRAMP binding (n = 4, ***p < 0.001, ****p < 0.0001). ITC analyses for CRAMP binding to HP were performed at 25°C using a MicroCal iTC 200 titration calorimetry. The fitted heat curves of titrating CRAMP binding to (C) HP and (D) 2ODS-HP are shown.
(§6) Affi-Gel HP beads were washed and resuspended in PBS. Affi-Gel HP beads (20 μL) were incubated with 0.5 μM Alexa 647-labeled CRAMP without or with 20 μg/mL HP, chemically desulfated HP, or chemoenzymatically sulfated H for 1 h at room temperature. Affi-Gel HP beads were washed with PBS, and the Alexa 647-labeled CRAMP bound to them was assessed by flow cytometry.

CRAMP [3] = test: ITC of HP and 2ODS-HP binding to CRAMP; design: species or system mouse; settings: 25.0°C, 50 mM HEPS pH 7.4, 150 mM NaCl
Experimental: as §5
ITC of CRAMP binding to HP and modified HP was carried out at 25.0°C using a MicroCal iTC 200 titration calorimetry system (Malvern, UK). A stock solution of CRAMP was diluted to 12.5 μM in 50 mM HEPS, pH 7.4, 150 mM NaCl, and approximately 300 μL of this solution was loaded into the ITC cell and titrated with 25 μM of HP or 2ODS-HP in the same buffer. Briefly, titration injection of HP or 2ODS-HP consisted of a first injection of 0.4 μL followed by 18 consecutive injections of 2 μL of 0.8 s duration and with a 2.5 min interval between injections. […] The enthalpy change of binding (ΔH), the binding affinity, and the binding stoichiometry were determined.

CRAMP [4] = test: Alexa 647-CRAMP binding to fixed S. aureus, inhibition by glycosaminoglycans (flow cytometry); design: species or system mouse; settings: 0.5 μM Alexa 647-conjugated CRAMP
Experimental: Alexa 647-conjugated CRAMP (0.5 μM) was incubated with 2% paraformaldehyde-fixed Staphylococcus aureus USA300 without or with 5 μg/mL HP, HS, CS, DS, NDS-HP, 6ODS-HP, or 2ODS-HP for 1 h at room temperature. S. aureus-associated CRAMP fluorescence was analyzed by flow cytometry. Results are shown as % Alexa CRAMP binding (n = 3, ****p < 0.0001).
Alexa 647 fluorophore was conjugated to CRAMP using the Lightning-Link Rapid FluoProbes647H labeling kit following the manufacturer’s instructions. S. aureus USA300 fixed in 2% paraformaldehyde for 20 min was resuspended in 20 μL of phosphate buffer and incubated with 0.5 μM of Alexa 647-labeled CRAMP for 30 min at room temperature without or with glycosaminoglycans. Unbound Alexa 647-labeled CRAMP was removed by washing with phosphate buffer, and Alexa 647-labeled CRAMP bound to bacteria was assessed by flow cytometry.
as §4

[5] = Alexa 647-CRAMP binding to Affi-Gel HP beads, direct and with unlabeled peptides (flow cytometry); settings: 20-fold excess (5 μM) unlabeled peptide, 250 nM Alexa 647-labeled CRAMP, 1 h at room temperature, n = 3–4
Experimental: FIGURE 5 | Secondary structure of mature CRAMP is required for binding to heparan compounds. (A) Sequence and pI (in parentheses) of the 34 amino acid long mature CRAMP and four 10- or 20-mer peptides that span amino acids 4–13 (CR-1), 13–22 (CR-2), 24–33 (CR-3), or 4–23 (CR-4) of mature CRAMP. (B) Affi-Gel HP beads were incubated with 250 nM of Alexa 647-labeled CRAMP without or with 5 μM of unlabeled CRAMP, heat-treated CRAMP, CR-1, CR-2, CR-3, or CR-4 peptides for 1 h at room temperature. […] (C) ITC analyses of heat-treated CRAMP binding to HP. The fitted heat curve of titrating CRAMP binding to HP is shown. TEXT PRINTED IN THE PICTURE: (A) CRAMP: (10.0) | (A) CR-1: (9.6) | (A) CR-2: (10.6) | (A) CR-3: (5.9) | (A) CR-4: (10.4) DOUBTS OF THE COPYIST ABOUT THIS PICTURE: Panel A: the numbers in brackets after the peptide names are printed without any measure or unit in the picture, so they are given as printed, without a measure.
as §6

S. aureus USA300 [6] = test: Pre-incubation of S. aureus with glycosaminoglycans, washing, then killing by cathelicidin; format: cell-based, Staphylococcus aureus; settings: 5 μg/ml glycosaminoglycan pre-incubated with 500 cfu USA300 30 min at 37°C, washed three times, then 0.5 μM CRAMP 2 h at 37°C, n = 4
Experimental: Figure S1. A) CRAMP expression was measured in uninfected Wt corneas or Wt corneas isolated at 4 h post-S. aureus USA300 infection. Briefly, eyes were enucleated, corneas were dissected, and isolated corneas were incubated with 10 mg/ml dispase II overnight at 4°C to peel off the corneal epithelium. Total RNA was purified from the corneal epithelium, and 1 ng of total RNA was analyzed by qRT-PCR for CRAMP or β-actin expression (n = 3, **p < 0.01). […] Bacterial killing was measured by plating serial dilutions onto TSA plates and counting colonies the following day. Results are shown as % bacterial survival (n = 4). Figure S2. […] Bacterial killing (%) was enumerated by plating serial dilutions onto TSA plates and counting colonies the following day (n = 5). B) Effects of pre-incubating S. aureus with glycosaminoglycans on bacterial killing by cathelicidins were examined by incubating 500 cfu of USA300 without or with 5 μg/ml HS, HP, DS, or CS for 30 min at 37°C. Bacteria were washed three times with buffer, incubated with 0.5 μM CRAMP for 2 h at 37°C, and % bacterial killing was determined by plating serial dilutions of samples (n = 4). Figure S3. […] Images were captured with a fluorescence microscope (Zeiss Axiovert 40 CFL). Quantification of % dead bacteria (out of total bacteria in field) is shown at the bottom. […] S. aureus-associated CRAMP fluorescence was analyzed by flow cytometry. […]

S. aureus USA300 [7] = test: Bacteria live/dead staining (BaclightGreen / propidium iodide); format: cell-based, Staphylococcus aureus; settings: 0.5 μM CRAMP without or with 5 μg/mL compound, 30 min at room temperature, propidium iodide 10 μg/mL
Experimental: as §2
S. aureus USA300 was stained by BaclightGreen (Thermo Fisher) following the manufacturer’s instructions. Briefly, an overnight culture of S. aureus was resuspended in PBS and incubated with 100 μM BaclightGreen for 15 min at room temperature. […] Bacteria were mounted on glass slides and images were captured with a fluorescence microscope (Zeiss Axiovert 40 CFL). […]
Figure S1. A) CRAMP expression was measured in uninfected Wt corneas or Wt corneas isolated at 4 h post-S. aureus USA300 infection. […] Total RNA was purified from the corneal epithelium, and 1 ng of total RNA was analyzed by qRT-PCR for CRAMP or β-actin expression (n = 3, **p < 0.01). […] Bacterial killing was measured by plating serial dilutions onto TSA plates and counting colonies the following day. […] Bacteria were washed three times with buffer, incubated with 0.5 μM CRAMP for 2 h at 37°C, and % bacterial killing was determined by plating serial dilutions of samples (n = 4). […] Images were captured with a fluorescence microscope (Zeiss Axiovert 40 CFL). […]

Substance	Inhibition of S. aureus killing by CRAMP (CRAMP [1])	Inhibition of S. aureus killing by LL-37 (LL-37)	Inhibition of S. aureus killing by CAP-18 (CAP-18)	Inhibition of S. aureus killing by SMAP-29 (SMAP-29)	Inhibition of CRAMP binding to HP beads (CRAMP [2])	Reduction of mean fluorescence intensity (MFI) of CRAMP binding to HP beads compared to control (CRAMP [2])	Heat changes on incubation with CRAMP (ITC) (CRAMP [3]; 12.5 μM CRAMP titrated with 25 μM 2ODS-HP)	Decrease of MFI of Alexa-labeled CRAMP binding to S. aureus compared to control (CRAMP [4]; 5 μg/mL glycosaminoglycan, 2% paraformaldehyde-fixed S. aureus USA300, 1 h at room temperature, n = 3)	Reduction of proportion of CRAMP-bound bacteria (Alexa CRAMP binding, FACS density plots) compared to No GAG (CRAMP [4]; 5 μg/ml glycosaminoglycan, fixed S. aureus USA300, 1 h at room temperature, representative plots)	Inhibition of Alexa CRAMP binding to HP beads by unlabeled peptide [5]	Inhibition of bacterial killing by cathelicidins after pre-incubation with bacteria and washing away (S. aureus USA300 [6])	Kd (CRAMP [3]; 12.5 μM CRAMP in cell, titrated with 25 μM HP, read-out: Binding affinity for CRAMP binding to HP (ITC))	Live (green) / dead (red) state of most bacteria (S. aureus USA300 [7])
2-O-desulfated HP [2ODS-HP]	significantly inhibited the ability of HP to inhibit	significantly inhibited the ability of HP to inhibit	significantly inhibited the ability of HP to inhibit	significantly inhibited the ability of HP to inhibit	25%	not	did not produce significant heat changes	no effect	not	–	–	–	–
CR-4: 20-mer peptide, amino acids 4–23 of mature CRAMP (LAGLLRKGGEKIGEKLKKIG; Cathelicidin antimicrobial peptide; UniProt P51437 138-157, looked up, fragment)	–	–	–	–	–	–	–	–	–	34.7%	–	–	–
heparin [HP]	over 70%	over 70%	over 70%	over 70%	over 75%	–	–	–	–	–	did not inhibit	45.2 nM	–
GLLRKGGEKIGEKLKKIGQKIKNFFQKLVPQPEQ [CRAMP]	–	–	–	–	–	–	–	–	–	92.7%	–	–	dead
